Reference: PubChem BioAssay AID248 (DTP/NCI, 2004)
Values joined by “and” are separate entries in the source; they are usually repeats but may differ in a detail not shown here. Identical values can stand only once. Inconclusive results and toxic doses are left out. Cut-off read from the data, not from the text of the source: active = T/C of 150% or more; inactive = T/C below 125%.

Tested on: L1210 leukemia ip in BDF1 mice, survival T/C
Assay: NCI In Vivo Anticancer Drug Screen. Data for tumor model L1210 Leukemia (intraperitoneal) in B6D2F1 (BDF1) mice
Settings: endpoint: mean survival time, higher = longer survival
Summary of the method: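 In this screen, tumor-bearing mice given compound are compared to those given vehicle, and their survival values are reported as a treated-to-control quotient.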

[1] = dose: 400.0 mg/kg/injection, schedule: Q01DX009 (ip), vehicle: Klucel (hydroxypropylcellulose) (HPC)
[2] = dose: 100.0 mg/kg/injection, schedule: Q04DX003 (ip), vehicle: saline with Tween-80
[3] = dose: 200.0 mg/kg/injection, schedule: Q04DX003 (ip), vehicle: saline with Tween-80
[4] = dose: 400.0 mg/kg/injection, schedule: Q04DX003 (ip), vehicle: saline with Tween-80
[5] = dose: 100.0 mg/kg/injection, schedule: Q01DX009 (ip), vehicle: Klucel (hydroxypropylcellulose) (HPC)
[6] = dose: 100.0 mg/kg/injection, schedule: Q04DX003 (ip), vehicle: Klucel (hydroxypropylcellulose) (HPC)
[7] = dose: 200.0 mg/kg/injection, schedule: Q01DX009 (ip), vehicle: Klucel (hydroxypropylcellulose) (HPC)
[8] = dose: 200.0 mg/kg/injection, schedule: Q04DX003 (ip), vehicle: Klucel (hydroxypropylcellulose) (HPC)
[9] = dose: 400.0 mg/kg/injection, schedule: Q04DX003 (ip), vehicle: Klucel (hydroxypropylcellulose) (HPC)

Measured: T/C

CC(=O)Nc1ccccc1C(=NC1CCCC1)C(=O)NC1CCCC1
inactive: dose: 3.12 mg/kg/injection, schedule: Q01DX009 (ip), vehicle: Klucel (hydroxypropylcellulose) (HPC) 97 % of control | dose: 6.25 mg/kg/injection, schedule: Q01DX009 (ip), vehicle: Klucel (hydroxypropylcellulose) (HPC) 94 % of control | dose: 12.5 mg/kg/injection, schedule: Q01DX009 (ip), vehicle: Klucel (hydroxypropylcellulose) (HPC) 89 % of control | [1] 95 % of control

O=C(O)c1ccc(Nc2ncnc3nc[nH]c23)cc1
inactive: [2] 104 % of control | [3] 96 % of control | [4] 102 % of control

C(CC1CCCC1)=C(CCC1CCCC1)CCC1CCCC1
inactive: dose: 50.0 mg/kg/injection, schedule: Q04DX002 (ip), vehicle: saline with Tween-80 103 % of control | dose: 100.0 mg/kg/injection, schedule: Q04DX002 (ip), vehicle: saline with Tween-80 92 % of control | dose: 200.0 mg/kg/injection, schedule: Q04DX002 (ip), vehicle: saline with Tween-80 95 % of control | dose: 400.0 mg/kg/injection, schedule: Q04DX002 (ip), vehicle: saline with Tween-80 92 % of control

O=[N+]([O-])CC(OCCCc1ccccc1)C(Cl)(Cl)Cl (stereo not given)
inactive: dose: 100.0 mg/kg/injection, schedule: Q01DX009 (ip), vehicle: saline with Tween-80 107 % of control | [2] 93 % of control | dose: 200.0 mg/kg/injection, schedule: Q01DX009 (ip), vehicle: saline with Tween-80 109 % of control | [3] 104 % of control | [4] 91 % of control

COc1cc2c(cc1OC)[C@@H]1Cc3ccc(OC)c(OC)c3CN1CC2
inactive: dose: 100.0 mg/kg/injection, schedule: Q01DX001 (ip), vehicle: carboxymethylcellulose (CMC) 102 % of control | dose: 200.0 mg/kg/injection, schedule: Q01DX001 (ip), vehicle: carboxymethylcellulose (CMC) 110 % of control | dose: 400.0 mg/kg/injection, schedule: Q01DX001 (ip), vehicle: carboxymethylcellulose (CMC) 94 % of control

O=C(Nc1ccccc1C(F)(F)F)c1ccc(Cl)c(Cl)c1
inactive: [5] 92 % of control | [6] 91 % of control | [7] 89 % of control | [8] 90 % of control | [9] 88 % of control

Cn1nc(N)c2cc(C(N)=O)c(N)nc21
inactive: [5] 88 % of control | [6] 96 % of control | [8] 100 % of control | [1] 90 % of control | [9] 97 % of control

O=[N+]([O-])c1cc(S(=O)(=O)C(F)F)ccc1Cl
inactive: dose: 25.0 mg/kg/injection, schedule: Q04DX003 (ip), vehicle: gum acacia 97 % of control | dose: 50.0 mg/kg/injection, schedule: Q01DX009 (ip), vehicle: gum acacia 93 % of control | dose: 50.0 mg/kg/injection, schedule: Q04DX003 (ip), vehicle: gum acacia 97 % of control | dose: 100.0 mg/kg/injection, schedule: Q01DX009 (ip), vehicle: gum acacia 88 % of control | dose: 100.0 mg/kg/injection, schedule: Q04DX003 (ip), vehicle: gum acacia 99 % of control and 102 % of control

O=c1cc(CNc2ccc(Cl)cc2)[nH]c(=O)[nH]1
inactive: [2] 98 % of control | [3] 101 % of control | [4] 95 % of control

CCCCCCCCCC=C(c1cccc2ccccc12)c1cccc2ccccc12
inactive: dose: 100.0 mg/kg/injection, schedule: Q01DX001 (ip), vehicle: other 93 % of control | dose: 200.0 mg/kg/injection, schedule: Q01DX001 (ip), vehicle: other 96 % of control | dose: 400.0 mg/kg/injection, schedule: Q01DX001 (ip), vehicle: other 102 % of control

C=C1CCC2CCCN2C1=O (stereo not given)
inactive: dose: 25.0 mg/kg/injection, schedule: Q01DX001 (ip), vehicle: saline 94 % of control | dose: 50.0 mg/kg/injection, schedule: Q01DX001 (ip), vehicle: saline 97 % of control | dose: 100.0 mg/kg/injection, schedule: Q01DX001 (ip), vehicle: saline 108 % of control | dose: 200.0 mg/kg/injection, schedule: Q01DX001 (ip), vehicle: saline 87 % of control

CC1CC(=O)NC(N)=N1 (stereo not given)
inactive: dose: 100.0 mg/kg/injection, schedule: Q01DX Z (ip), vehicle: saline 110 % of control | dose: 200.0 mg/kg/injection, schedule: Q01DX Z (ip), vehicle: saline 92 % of control

O=C1NC2C1C1c3ccccc3C2C12CC2 (stereo not given)
inactive: dose: 100.0 mg/kg/injection, schedule: Q04DX002 (ip), vehicle: Klucel (hydroxypropylcellulose) (HPC) 105 % of control | dose: 200.0 mg/kg/injection, schedule: Q04DX002 (ip), vehicle: Klucel (hydroxypropylcellulose) (HPC) 97 % of control | dose: 400.0 mg/kg/injection, schedule: Q04DX002 (ip), vehicle: Klucel (hydroxypropylcellulose) (HPC) 94 % of control

O=C(O)c1ccccc1C(=O)c1cccc2c(Cl)cccc12
inactive: dose: 50.0 mg/kg/injection, schedule: Q01DX001 (ip), vehicle: Klucel (hydroxypropylcellulose) (HPC) 97 % of control | dose: 100.0 mg/kg/injection, schedule: Q01DX001 (ip), vehicle: Klucel (hydroxypropylcellulose) (HPC) 92 % of control | dose: 200.0 mg/kg/injection, schedule: Q01DX001 (ip), vehicle: Klucel (hydroxypropylcellulose) (HPC) 91 % of control

Oc1ccc(-c2ccccc2)cc1CNC12CC3CC(CC(C3)C1)C2
inactive: [5] 100 % of control | [6] 90 % of control | [7] 88 % of control | [8] 100 % of control | [1] 93 % of control | [9] 94 % of control

COC(=O)C(Cc1ccccc1)NC(=O)/C=C/N(CCCl)CCCl (stereo not given)
inactive: dose: 10.0 mg/kg/injection, schedule: Q01DX Z (ip), vehicle: other 97 % of control | dose: 20.0 mg/kg/injection, schedule: Q01DX Z (ip), vehicle: other 96 % of control | dose: 40.0 mg/kg/injection, schedule: Q01DX Z (ip), vehicle: other 89 % of control | dose: 80.0 mg/kg/injection, schedule: Q01DX Z (ip), vehicle: other 102 % of control

Cc1cc(C)[nH]c(=O)n1
inactive: dose: 100.0 mg/kg/injection, schedule: Q01DX009 (ip), vehicle: saline 98 % of control | dose: 100.0 mg/kg/injection, schedule: Q04DX003 (ip), vehicle: saline 100 % of control | dose: 200.0 mg/kg/injection, schedule: Q01DX009 (ip), vehicle: saline 88 % of control | dose: 200.0 mg/kg/injection, schedule: Q04DX003 (ip), vehicle: saline 94 % of control | dose: 400.0 mg/kg/injection, schedule: Q04DX003 (ip), vehicle: saline 96 % of control

COc1c2c(c(OC)c3c(OC)c4ccccc4c(OC)c13)CC=CC2
inactive: dose: 50.0 mg/kg/injection, schedule: Q01DX005 (ip), vehicle: water 94 % of control | dose: 100.0 mg/kg/injection, schedule: Q01DX005 (ip), vehicle: water 87 % of control | dose: 200.0 mg/kg/injection, schedule: Q01DX005 (ip), vehicle: water 89 % of control | dose: 400.0 mg/kg/injection, schedule: Q01DX005 (ip), vehicle: water 87 % of control

O=NN(CCCl)C(=O)Nc1c[nH]c(=O)[nH]c1=O
inactive: dose: 18.0 mg/kg/injection, schedule: Q01DX Z (ip), vehicle: carboxymethylcellulose (CMC) 110 % of control | dose: 125.0 mg/kg/injection, schedule: Q01DX001 (ip), vehicle: carboxymethylcellulose (CMC) 89 % of control
active: dose: 0.75 mg/kg/injection, schedule: Q01DX Z (ip), vehicle: carboxymethylcellulose (CMC) 200 % of control | dose: 1.0 mg/kg/injection, schedule: Q01DX Z (ip), vehicle: carboxymethylcellulose (CMC) 177 % of control | dose: 1.5 mg/kg/injection, schedule: Q01DX Z (ip), vehicle: carboxymethylcellulose (CMC) 185 % of control | dose: 2.0 mg/kg/injection, schedule: Q01DX Z (ip), vehicle: carboxymethylcellulose (CMC) 192 % of control | dose: 3.0 mg/kg/injection, schedule: Q01DX Z (ip), vehicle: carboxymethylcellulose (CMC) 210 % of control and 212 % of control | dose: 6.0 mg/kg/injection, schedule: Q01DX Z (ip), vehicle: carboxymethylcellulose (CMC) 189 % of control | dose: 20.0 mg/kg/injection, schedule: Q01DX001 (ip), vehicle: carboxymethylcellulose (CMC) 205 % of control | dose: 31.0 mg/kg/injection, schedule: Q01DX001 (ip), vehicle: carboxymethylcellulose (CMC) 155 % of control | dose: 40.0 mg/kg/injection, schedule: Q01DX001 (ip), vehicle: carboxymethylcellulose (CMC) 288 % of control | dose: 50.0 mg/kg/injection, schedule: Q01DX001 (ip), vehicle: carboxymethylcellulose (CMC) 229 % of control | dose: 62.0 mg/kg/injection, schedule: Q01DX001 (ip), vehicle: carboxymethylcellulose (CMC) 231 % of control | dose: 80.0 mg/kg/injection, schedule: Q01DX001 (ip), vehicle: carboxymethylcellulose (CMC) 174 % of control
